{
  "source": "patent US11390617B2",
  "about": "“Methods of treating non-Hodgkin lymphoma using 2-(2,6-dioxopiperidin-3-yl)-4-((2-fluoro-4-((3-morpholinoazetidin-1-yl)methyl)benzyl)amino)isoindoline-1,3-dione” (Celgene Corporation, priority 2019, dated 2022)",
  "tested_on": "SUDHL-6 DLBCL xenograft tumors",
  "assay": "SUDHL-6 (DLBCL) xenograft model",
  "assay_type": "in vivo, female SCID mice",
  "conditions": "Compound 1 10 mg/kg oral, 5 days on 2 days off for 3 weeks, single agent",
  "description": "Female 6- to 8-weeks-old CB17 SCID mice were obtained from Charles River Laboratories. Mice were housed in a barrier facility in micro-isolator cages at 10 animals per cage. Mice were fed with Harlan-Teklad LM-485 Mouse/Rat Sterilizable Diet and autoclaved water ad libitum and maintained on a 12 hours light-dark cycle. Animals were acclimatized to the animal housing facility for a period of 7 days before the beginning of the experiment. All animal studies were performed under protocols approved by Institutional Animal Care and Use Committees.\nSuspensions of Compound 1 were pared in aqueous 0.5% Methyl Cellulose, 0.25% Tween 80 and 50 mM Citrate pH 3. […]\nTumor cells were injected subcutaneously in the flank region above the right hind legs of female CB17 SCID mice. […] Tumor volumes were determined before the initiation of treatment and were considered as the starting volumes. Tumors were measured twice a week for the duration of the study. The long and short axes of each tumor were measured using a digital caliper in millimeters. The tumor volumes were calculated using the formula: width^2×length/2. […]\nXenograft data are expressed as mean±SEM. […]\nXenograft study was conducted with female SCID mice bearing SUDHL-6 DLBCL xenograft tumors. […] Tumors were measured twice a week using calipers and tumor volumes were calculated using the formula of W^2×L/2. […]",
  "data": [
    {"compound": "O=C1CC[C@H](N2C(=O)c3cccc(NCc4ccc(CN5CC(N6CCOCC6)C5)cc4F)c3C2=O)C(=O)N1", "note": "[Compound 1, (S)-2-(2,6-dioxopiperidin-3-yl)-4-((2-fluoro-4-((3-morpholinoazetidin-1-yl)methyl)benzyl)amino)isoindoline-1,3-dione]", "values": [
      {"measurement": "tumor volume reduction", "result": 68, "unit": "%"}
    ]}
  ]
}
